Assay results taken from patent US6156700A, “3-(1,2-Benzisothiazol- and isoxazol-5-yl)-2,4(1H,3H)-pyrimidinedione or thione and 3-(1,2-benzisothiazol- and isoxazol-5-yl)-4(3H)-pyrimidinone or thione herbicidal agents” (American Cyanmid Company, priority 1998, dated 2000).

Key:
[1] = tested on: Velvetleaf, Abutilon theophrasti; assay: Postemergence herbicidal evaluation, ABUTH; format: in vivo, Medic.; settings: 0.2500 kg/ha
Procedure, shortened: (§1)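 Visual 0–9 scoring against untreated control, made four to five weeks post-spray and averaged over repeat tests, covers stand, vigor, malformation, size and chlorosis. Treatment: foliar spray at 40 psi onto ~2-week seedlings, about 0.0157–0.500 kg/ha, compound in 1:1 acetone/water with 0.5% TWEEN 20.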

[2] = tested on: Ragweed, Common, Ambrosia artemisifolia; assay: Postemergence herbicidal evaluation, AMBEL; format: in vivo, L.; settings: 0.2500 kg/ha
Procedure, shortened: as §1

Galium, Galium aparine = assay: Postemergence herbicidal evaluation, GALAP; format: in vivo; settings: 0.2500 kg/ha
Procedure, shortened: as §1

[3] = tested on: Morningglory Spp., Ipomoea Spp.; assay: Postemergence herbicidal evaluation, IPOSS; format: in vivo; settings: 0.2500 kg/ha
Procedure: In the tests, seedling plants are grown in jiffy flats for about two weeks. The test compounds are dispersed in 50/50 acetone/water mixtures containing 0.5% TWEEN®20, a polyoxyethylene sorbitan monolaurate surfactant of Atlas Chemical Industries, in sufficient quantities to provide the equivalent of about 0.0157 kg to 0.500 kg per hectare of active compound when applied to the plants through a spray nozzle operating at 40 psi for a predetermined time. After spraying, the plants are placed on greenhouse benches and are cared for in accordance with conventional greenhouse procedures. From four to five weeks after treatment, the seedling plants are examined and rated according to the rating system set forth below. Where more than one test is involved for a given compound, the data are averaged.
(§2) Results of herbicide evaluation are expressed on a rating scale (0-9). The scale is based upon a visual observation of plant stand, vigor, malformation, size, chlorosis and overall plant appearance as compared with a control.

[4] = tested on: Barnyardgrass, Echinochloa crus-galli; assay: Postemergence herbicidal evaluation, ECHCG; format: in vivo, (L.) Beau; settings: 0.2500 kg/ha
Procedure, shortened: as §1

Corn, Field, Zea mays [5] = assay: Postemergence herbicidal evaluation, ZEAMX; format: in vivo, L.; settings: 0.2500 kg/ha
Procedure, shortened: as §1

[6] = tested on: Velvetleaf, Abutilon theophrasti; assay: Preemergence herbicidal evaluation, ABUTH; format: in vivo, Medic.; settings: 0.2500 kg/ha
Description: as §2
(§3) The preemergence herbicidal activity of the test compounds of the present invention is exemplified by the following tests in which the seeds of a variety of monocotyledonous and dicotyledonous plants are separately mixed with potting soil and planted on top of approximately one inch of soil in separate pint cups. After planting, the cups are sprayed with the selected aqueous acetone solution containing test compound in sufficient quantity to provide the equivalent of about 0.0156 to 0.500 kg per hectare of test compound per cup. The treated cups are then placed on greenhouse benches, watered and cared for in accordance with conventional greenhouse procedures. From four to five weeks after treatment, the tests are terminated and each cup is examined and rated according to the rating system provided in Example 185.
(§4) The compounds evaluated are reported by compound number given in Example 185.

[7] = tested on: Barnyardgrass, Echinochloa crus-galli; assay: Preemergence herbicidal evaluation, ECHCG; format: in vivo, (L.) Beau; settings: 0.2500 kg/ha
Description: as §2, §3, §4

[8] = tested on: Foxtail, Green, Setaria viridis; assay: Preemergence herbicidal evaluation, SETVI; format: in vivo, (L.) Beau; settings: 0.2500 kg/ha
Description: as §2, §3, §4

Corn, Field, Zea mays [9] = assay: Preemergence herbicidal evaluation, ZEAMX; format: in vivo, L.; settings: 0.2500 kg/ha
Description: as §2, §3, §4

CYPIR Rice Flatsedge = assay: Preemergence weed control, flooded paddy (Table III); format: in vivo, Cyperus iria; design: scale not given here
Procedure: (§5) Preemergence herbicidal activity under flooded paddy conditions is determined as follows: plant seeds or propagating organs are planted in the top 0.5 cm of silt loam soil in 32 oz. plastic containers with a diameter of 10.5 cm and no drainage holes. Water is added to these containers and maintained at 1.5 to 3 cm above the soil surface for the duration of the experiment. The test compounds are applied as aqueous/acetone mixtures 50/50 v/v pipetted directly into the flood water to give the equivalent of about 0.0313 to 0.500 kg/ha of active ingredient. The treated containers are placed on greenhouse benches and cared for in accordance with conventional greenhouse procedures. Three to four weeks after treatment, the test is terminated and each container is examined and herbicidal effect rated according to the rating system provided in Example 185. The compounds evaluated are reported by compound number given in Example 185.

CYPSE Flatsedge = assay: as above; format: in vivo, Cyperus serotinus; design: scale not given here
Procedure: as §5

MOOVA Monochoria [10] = assay: as above; format: in vivo, Monochoria vaginalis; design: scale not given here
Procedure: as §5

MOOVA Monochoria [11] = assay: Postemergence weed control, flooded paddy (Table IV); format: in vivo, Monochoria vaginalis; design: scale not given here
Description: (§6) Plastic containers containing weeds which are 3 to 5 cm tall and rice seedlings at the 1.5 to 2.5 leaf stage are flooded with water. The water is maintained at 1.5 to 3 cm above the soil surface for the duration of the experiment. Test compounds are applied as aqueous/acetone mixtures 50/50 v/v directly into the flood water to provide the equivalent of about 0.0313 to 0.500 kg/ha of active ingredient. The treated containers are placed on greenhouse benches and cared for in accordance with conventional greenhouse procedures. Three to four weeks after treatment, the test is terminated and each container is examined and herbicidal effect rated according to the rating system provided in Example 185. The compounds evaluated are reported by compound number given in Example 185.

[12] = tested on: SAGPY Arrowhead (Pygmaea); assay: as above; format: in vivo, Sagittaria pygmaea; design: scale not given here
Description: as §6

ORYSAT Rice, Tebonnet = assay: Rice tolerance, flooded paddy (Table IV); format: in vivo, Oryza sativa; design: scale not given here; settings: crop tolerance
Description: as §6

COC(=O)C(C)Oc1cc(C)c(C)cc1-c1nsc2ccc(-n3c(=O)cc(C(F)(F)F)n(C)c3=O)cc12 (centres unmarked) [Compound 13, Methyl 2-{{6-{5-[3,6-dihydro-3-methyl-4-(trifluoromethyl)-2,6-dioxo-1(2H)-pyrimidinyl]-1,2-benzisothiazol-3-yl}-3,4-xylyl}oxy}propionate]
9.0: herbicide rating (0-9) [1] | herbicide rating (0-9) [2] | herbicide rating (0-9) [3] | herbicide rating (0-9) [4] | herbicide rating (0-9) (Corn, Field, Zea mays [5]) | herbicide rating (0-9) [6] | herbicide rating (0-9) [7] | herbicide rating (0-9) [8] | herbicidal effect rating (CYPIR Rice Flatsedge; 0.0313 kg/ha) | herbicidal effect rating (CYPIR Rice Flatsedge; 0.0625 kg/ha) | herbicidal effect rating (CYPIR Rice Flatsedge; 0.1250 kg/ha) | herbicidal effect rating (CYPIR Rice Flatsedge; 0.2500 kg/ha) | herbicidal effect rating (CYPIR Rice Flatsedge; 0.5000 kg/ha) | herbicidal effect rating (MOOVA Monochoria [10]; 0.0313 kg/ha) | herbicidal effect rating (MOOVA Monochoria [10]; 0.0625 kg/ha) | herbicidal effect rating (MOOVA Monochoria [10]; 0.1250 kg/ha) | herbicidal effect rating (MOOVA Monochoria [10]; 0.2500 kg/ha) | herbicidal effect rating (MOOVA Monochoria [10]; 0.5000 kg/ha) | herbicidal effect rating (MOOVA Monochoria [11]; 0.1250 kg/ha) | herbicidal effect rating (MOOVA Monochoria [11]; 0.2500 kg/ha) | herbicidal effect rating (MOOVA Monochoria [11]; 0.5000 kg/ha) | herbicidal effect rating ([12]; 0.5000 kg/ha)
0.0: herbicidal effect rating (CYPSE Flatsedge; 0.0313 kg/ha)
8.0: herbicide rating (0-9) (Galium, Galium aparine)
4.0: herbicide rating (0-9) (Corn, Field, Zea mays [9]) | herbicidal effect rating (ORYSAT Rice, Tebonnet; 0.1250 kg/ha) | herbicidal effect rating (ORYSAT Rice, Tebonnet; 0.2500 kg/ha)
2.0: herbicidal effect rating (CYPSE Flatsedge; 0.0625 kg/ha) | herbicidal effect rating ([12]; 0.1250 kg/ha) | herbicidal effect rating ([12]; 0.2500 kg/ha)
7.0: herbicidal effect rating (CYPSE Flatsedge; 0.1250 kg/ha) | herbicidal effect rating (CYPSE Flatsedge; 0.2500 kg/ha) | herbicidal effect rating (CYPSE Flatsedge; 0.5000 kg/ha) | herbicidal effect rating (ORYSAT Rice, Tebonnet; 0.5000 kg/ha)

COC(=O)COc1cc(C)ccc1-c1nsc2ccc(-n3c(=O)cc(C(F)(F)F)n(C)c3=O)cc12 [Compound 8, Methyl {{6-{5-[3,6-dihydro-3-methyl-4-(trifluoromethyl)-2,6-dioxo-1(2H)-pyrimidinyl]-1,2-benzisothiazol-3-yl}-m-tolyl}oxy}acetate]
8.0: herbicidal effect rating (ORYSAT Rice, Tebonnet; 0.2500 kg/ha)
4.0: herbicidal effect rating (CYPSE Flatsedge; 0.0313 kg/ha) | herbicidal effect rating ([12]; 0.1250 kg/ha)
6.0: herbicidal effect rating (ORYSAT Rice, Tebonnet; 0.1250 kg/ha)
9.0: herbicide rating (0-9) [1] | herbicide rating (0-9) [2] | herbicide rating (0-9) (Galium, Galium aparine) | herbicide rating (0-9) [3] | herbicide rating (0-9) [4] | herbicide rating (0-9) (Corn, Field, Zea mays [5]) | herbicide rating (0-9) [6] | herbicide rating (0-9) [7] | herbicide rating (0-9) [8] | herbicide rating (0-9) (Corn, Field, Zea mays [9]) | herbicidal effect rating (CYPIR Rice Flatsedge; 0.0313 kg/ha) | herbicidal effect rating (CYPIR Rice Flatsedge; 0.0625 kg/ha) | herbicidal effect rating (CYPIR Rice Flatsedge; 0.1250 kg/ha) | herbicidal effect rating (CYPIR Rice Flatsedge; 0.2500 kg/ha) | herbicidal effect rating (CYPIR Rice Flatsedge; 0.5000 kg/ha) | herbicidal effect rating (CYPSE Flatsedge; 0.0625 kg/ha) | herbicidal effect rating (CYPSE Flatsedge; 0.1250 kg/ha) | herbicidal effect rating (CYPSE Flatsedge; 0.2500 kg/ha) | herbicidal effect rating (CYPSE Flatsedge; 0.5000 kg/ha) | herbicidal effect rating (MOOVA Monochoria [10]; 0.0313 kg/ha) | herbicidal effect rating (MOOVA Monochoria [10]; 0.0625 kg/ha) | herbicidal effect rating (MOOVA Monochoria [10]; 0.1250 kg/ha) | herbicidal effect rating (MOOVA Monochoria [10]; 0.2500 kg/ha) | herbicidal effect rating (MOOVA Monochoria [10]; 0.5000 kg/ha) | herbicidal effect rating (MOOVA Monochoria [11]; 0.1250 kg/ha) | herbicidal effect rating (MOOVA Monochoria [11]; 0.2500 kg/ha) | herbicidal effect rating (MOOVA Monochoria [11]; 0.5000 kg/ha) | herbicidal effect rating ([12]; 0.2500 kg/ha) | herbicidal effect rating ([12]; 0.5000 kg/ha) | herbicidal effect rating (ORYSAT Rice, Tebonnet; 0.5000 kg/ha)
